{
  "source": "patent US20070114186A1",
  "about": "(priority 2003, published 2007)",
  "system": "pseudomonas & other pathogens",
  "data": [
    {"smiles": "[Zn]", "note": "[zinc]", "values": [
      {"measurement": "kills pseudomonas & other pathogens", "value": "kills pseudomonas & other pathogens"}
    ]}
  ]
}
